Earlier results on one molecule are cited in PubChem BioAssay AID1259409 (Chemical Carcinogenesis Research Information System (CCRIS), 2018).

Structures are written as SMILES.

The test system of this data set is rodent chemically induced tumor inhibition, incidence and multiplicity. As to the kind of experiment: CCRIS tumor inhibitor studies. The following applies: Carcinogen: N-METHYL-N-NITROSOUREA, 684-93-5, Route [Inhibitor]: ORAL, Species: RAT, Promoter: NONE USED.

`CC1=C(/C=C/C(C)=C/C=C/C(C)=C/C(=O)Nc2ccc(O)cc2)C(C)(C)CCC1`: the “tumour outcome (control, treated, inhibition, significance)” value (Dose [Inhibitor]: 0, 782 MG/KG OF GRAIN-BASED WAYNE DIET FOR DURATION OF STUDY BEGINNING 7 D POST CARCINOGEN DOSE (STUDY DURATION: 25 WK), Strain/Sex: F344/FEMALE, Target Tissue: Type of Lesion: MAMMARY GLAND: TUMOR, Dose [Carcinogen]: 45 MG/KG BW ONCE AT 50 D OF AGE) was 9/25 (36%), 6/25 (24%), 33%, not significant; the “tumour outcome (control, treated, inhibition, significance)” value (Dose [Inhibitor]: 0, 782 MG/KG OF GRAIN-BASED WAYNE DIET FOR DURATION OF STUDY BEGINNING 7 D PRIOR TO CARCINOGEN DOSE (STUDY DURATION: 26, Strain/Sex: F344/FEMALE, Target Tissue: Type of Lesion: MAMMARY GLAND: TUMOR, Dose [Carcinogen]: 45 MG/KG BW ONCE AT 50 D OF AGE) was 9/25 (36%), 5/25 (20%), 44%, not significant; the “tumour outcome (control, treated, inhibition, significance)” value (Dose [Inhibitor]: 0, 786 MG/KG IN DIET FOR 26 WK BEGINNING 4 WK POST CARCINOGEN DOSE (STUDY DURATION: 31 WK), Strain/Sex: SPRAGUE-DAWLEY/FEMALE, Target Tissue: Type of Lesion: MAMMARY GLAND: ADENOCARCINOMA, Dose [Carcinogen]: 50 MG/KG ONCE) is 84%, 74%, 12%, not significant; the “tumour outcome (control, treated, inhibition, significance)” value (Dose [Inhibitor]: 0, 786 MG/KG IN DIET FOR 31 WK BEGINNING 1 WK PRIOR TO CARCINOGEN DOSE (STUDY DURATION: 31 WK), Strain/Sex: SPRAGUE-DAWLEY/FEMALE, Target Tissue: Type of Lesion: MAMMARY GLAND: ADENOCARCINOMA, Dose [Carcinogen]: 50 MG/KG ONCE) is reported as 84%, 71%, 15%, not significant; the “tumour outcome (control, treated, inhibition, significance)” value (Dose [Inhibitor]: 0, 1173 MG/KG DIET BEGINNING AFTER THE SURGICAL REMOVAL OF THE FIRST PALPABLE TUMOR (STUDY DURATION: LIFETIME), Strain/Sex: SPRAGUE-DAWLEY/FEMALE, Target Tissue: Type of Lesion: MAMMARY GLAND: TUMOR, Dose [Carcinogen]: 35 MG/KG ONCE AT 50 DAYS OF AGE) is recorded as 93%, 88%, 5%, not calculated; the “tumour outcome (control, treated, inhibition, significance)” value (Dose [Inhibitor]: 1 MMOL/KG DIET DAILY STARTING 3 D AFTER LAST CARCINOGEN DOSE THROUGH END OF STUDY (STUDY DURATION: 129 D), Strain/Sex: SPRAGUE-DAWLEY/FEMALE, Target Tissue: Type of Lesion: MAMMARY GLAND: TUMOR, Dose [Carcinogen]: 50 MG/KG BW AT BOTH 50 AND 57 D OF AGE) was 17/17 (100%), 12/15 (80%), 20%, not significant. Further, the “tumour outcome (control, treated, inhibition, significance)” value is 12/40 (30%), 12/40 (30%), 0%, not significant (Dose [Inhibitor]: 1 MMOL/KG DIET DAILY STARTING 3 D AFTER LAST CARCINOGEN DOSE THROUGH END OF STUDY (STUDY DURATION: 182 D), Strain/Sex: SPRAGUE-DAWLEY/FEMALE, Target Tissue: Type of Lesion: MAMMARY GLAND: TUMOR, Dose [Carcinogen]: 15 MG/KG BW AT BOTH 50 AND 57 D OF AGE); 18/21 (86%), 15/30 (50%), 42%, p 0.027 (Dose [Inhibitor]: 2 MMOL/KG DIET DAILY FROM 2 D PRIOR THROUGH 12 WK AFTER CARCINOGEN DOSE FOLLOWED BY 16 WK OBSERVATION PERIOD (STUDY DURA, Strain/Sex: SPRAGUE-DAWLEY/FEMALE, Target Tissue: Type of Lesion: MAMMARY GLAND: TUMOR, Dose [Carcinogen]: 25 MG/KG BW ONCE); 18/21 (86%), 18/30 (60%), 30%, not significant (Dose [Inhibitor]: 2 MMOL/KG DIET DAILY FROM 2 D THROUGH 17 WK AFTER CARCINOGEN DOSE FOLLOWED BY 11 WK OBSERVATION PERIOD (STUDY DURATION:, Strain/Sex: SPRAGUE-DAWLEY/FEMALE, Target Tissue: Type of Lesion: MAMMARY GLAND: TUMOR, Dose [Carcinogen]: 25 MG/KG BW ONCE); 17/17 (100%), 11/17 (65%), 35%, p<0.01 (Dose [Inhibitor]: 2 MMOL/KG DIET DAILY STARTING 3 D AFTER LAST CARCINOGEN DOSE THROUGH END OF STUDY (STUDY DURATION: 129 D), Strain/Sex: SPRAGUE-DAWLEY/FEMALE, Target Tissue: Type of Lesion: MAMMARY GLAND: TUMOR, Dose [Carcinogen]: 50 MG/KG BW AT BOTH 50 AND 57 D OF AGE); 12/40 (30%), 6/40 (15%), 50%, not significant (Dose [Inhibitor]: 2 MMOL/KG DIET DAILY STARTING 3 D AFTER LAST CARCINOGEN DOSE THROUGH END OF STUDY (STUDY DURATION: 182 D), Strain/Sex: SPRAGUE-DAWLEY/FEMALE, Target Tissue: Type of Lesion: MAMMARY GLAND: TUMOR, Dose [Carcinogen]: 15 MG/KG BW AT BOTH 50 AND 57 D OF AGE); 5/39 (13%), 3/30 (10%), 23%, not significant (Dose [Inhibitor]: 2 MMOL/KG DIET DAILY STARTING 12 D AFTER CARCINOGEN TREATMENT THROUGH ABOUT 8 MO AFTER CARCINOGEN DOSE (STUDY DURATION:, Strain/Sex: F344/MALE, Target Tissue: Type of Lesion: COLON: ADENOCARCINOMA, Dose [Carcinogen]: 2.5 MG 1/WK FOR 2 WK).
